# In ChEMBL document CHEMBL1146067, “Free radical scavenging and antioxidant activities of substituted hexahydropyridoindoles. Quantitative structure-activity relationships” (J Med Chem, 2006):
# Test system: Radical scavenging activity
# Assay: Antioxidant activity in unilamellar DOPC liposomes
# Type: functional, subcellular, Liposome
row,SMILES,Log IC50
1,COc1ccc2c(c1)[C@H]1CN(C)CC[C@H]1N2,-4.48
2,Cc1ccc2c(c1)[C@H]1CN(C)CC[C@H]1N2 [STOBADINE],-4.6
3,Cc1cc2c(c([N+](=O)[O-])c1)N[C@H]1CCN(C)C[C@@H]21 (racemic),-4.58
4,Cc1cc(C)c2c(c1)[C@@H]1CN(C(=O)OCc3ccccc3)CC[C@@H]1N2 (racemic),-5.36
5,CN1CC[C@@H]2Nc3ccc(O)cc3[C@@H]2C1 (racemic),-4.68
6,Cc1c(Br)cc2c(c1C)N[C@H]1CCN(C(=O)OCc3ccccc3)C[C@@H]21 (racemic),-5.53
7,Cc1cc(N)c2c(c1)[C@@H]1CN(C)CC[C@@H]1N2 (racemic),-4.9
8,Cc1cc(Br)c2c(c1)[C@@H]1CN(C)CC[C@@H]1N2 (racemic),-4.8
9,COC(=O)N1CC[C@@H]2Nc3c(Br)c(C)c(OC)c(C)c3[C@@H]2C1 (racemic),-4.71
10,Cc1cc2c(c(N(C)C)c1)N[C@H]1CCN(C)C[C@@H]21 (racemic),-4.66

# The remaining lines, values ahead:
row,Log IC50,SMILES
1,-4.71,COC(=O)N1CC[C@@H]2Nc3cc(C)c(OC)c(C)c3[C@@H]2C1 (racemic)
2,-4.7,CCOC(=O)N1CC[C@@H]2Nc3cc(C)c(OC)c(C)c3[C@@H]2C1 (racemic)
3,-5.48,COc1c(C)cc2c(c1C)[C@@H]1CN(C(=O)OCc3ccccc3)CC[C@@H]1N2 (racemic)
4,-5.49,COc1ccc2c(c1)[C@@H]1CN(C(=O)OCc3ccccc3)CC[C@@H]1N2 (racemic)
5,-5.19,COc1c(C)cc2c(c1C)[C@@H]1CN(C(=O)OCC(C)C)CC[C@@H]1N2 (racemic)
6,-5.35,CCCCOC(=O)N1CC[C@@H]2Nc3cc(C)c(OC)c(C)c3[C@@H]2C1 (racemic)
7,-5.16,CCCOC(=O)N1CC[C@@H]2Nc3cc(C)c(OC)c(C)c3[C@@H]2C1 (racemic)
8,-5.12,COc1ccc2c(c1)[C@@H]1CN(C(=O)OC(C)(C)C)CC[C@@H]1N2 (racemic)
9,-5.29,COc1cc(C)c2c(c1)[C@@H]1CN(C(=O)OCc3ccccc3)CC[C@@H]1N2 (racemic)
